# Several values for one entry are separate records, joined by “and”; a condition that tells them apart may be missing. Identical values can stand only once. Entries after “also recorded” stand apart in the source; their conditions may differ. Like-named read-outs stand apart in the source and are kept apart here.
# Tests used:
# [1] = target: pre-formed fibrils (PFFs) of α-Synuclein (Homo sapiens, UniProt P37840); assay: in vitro binding assay with α-Syn PFFs; settings: fibrils binding assay, result in words
# Excerpt: (§1) The general strategy that was employed to screen the candidate Lewy body PET agents is summarized as follows: (a) To perform in vitro binding assay with Pre-formed fibrils (PFFs) of α-Syn and counter-screening with Tau and Aβ PFFs; (b) To test the positive compounds in the neuronal models with aggregated α-Syn, Tau or […]; (c) To screen with the brain slides from α-Syn mutant A53T virus injected WT mice, and counter-screen with aged 3×Tg (containing both senile plaques and NFT), and aged Tau P301S (NFT) brain sections; (d) to screen the patient brain sections from DLB and MSA against AD; (e) To determine the binding kinetics between α-Syn PFFs and positive hits; (f) To determine the candidates in vivo brain/plasma (B/P) ratios and the brain permeability; (g) To determine the in vivo PET images in α-Syn A53T with candidates and compare its images in 5XFAD and Tau P301S mice.
# (§2) To perform in vitro binding assay, commercial compounds were screened (See FIG. 7B).
# (§3) A series of derivatives were synthesized by including an amino group and a methyl group on benzothiazole to increase the brain permeability and fluorescent signals. The derivatives were subsequently subjected to α-Syn PFFs binding assay and counter-screening with Tau and Aβ PFFs. […] These compounds were screened on the neuronal α-Syn, Tau and Aβ aggregation model for the binding selectivity. Primary cultured neurons were infected with AAV-α-Syn, AAV-Tau FL for 7 days, then treated with α-Syn, Tau or Aβ PFFs. In a few days, the positive compounds were added in the primary neurons with indicated aggregates and analyzed under fluorescent microscopy.
# To perform in vitro binding assay, compounds were screened. […] An amino group and a methyl group in the benzothazole were added to increase its brain permeability and fluorescent signals. […] The synthesized derivatives were subsequently subjected to the α-Syn PFFs binding and counter-screen of Tau and Aβ PFFs as described above.
# [2] = target: T1, Aβ PFFs (Homo sapiens, UniProt P05067); assay: counter-screening with Aβ PFFs; assay type: binding; settings: result in words
# T1 construct: counter-screening with Tau and Aβ PFFs
# T1 sequence (P05067 672-713 limits assumed): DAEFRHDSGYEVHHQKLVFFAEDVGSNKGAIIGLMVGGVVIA
# Excerpt: as §1, §2
# (§4) A series of derivatives were synthesized by including an amino group and a methyl group on benzothiazole to increase the brain permeability and fluorescent signals. The derivatives were subsequently subjected to α-Syn PFFs binding assay and counter-screening with Tau and Aβ PFFs. […] In a few days, the positive compounds were added in the primary neurons with indicated aggregates and analyzed under fluorescent microscopy. […]
# [3] = target: T2, Tau PFFs (Homo sapiens, UniProt P10636); assay: counter-screening with Tau PFFs; assay type: binding; settings: result in words
# T2 sequence (P10636 whole entry): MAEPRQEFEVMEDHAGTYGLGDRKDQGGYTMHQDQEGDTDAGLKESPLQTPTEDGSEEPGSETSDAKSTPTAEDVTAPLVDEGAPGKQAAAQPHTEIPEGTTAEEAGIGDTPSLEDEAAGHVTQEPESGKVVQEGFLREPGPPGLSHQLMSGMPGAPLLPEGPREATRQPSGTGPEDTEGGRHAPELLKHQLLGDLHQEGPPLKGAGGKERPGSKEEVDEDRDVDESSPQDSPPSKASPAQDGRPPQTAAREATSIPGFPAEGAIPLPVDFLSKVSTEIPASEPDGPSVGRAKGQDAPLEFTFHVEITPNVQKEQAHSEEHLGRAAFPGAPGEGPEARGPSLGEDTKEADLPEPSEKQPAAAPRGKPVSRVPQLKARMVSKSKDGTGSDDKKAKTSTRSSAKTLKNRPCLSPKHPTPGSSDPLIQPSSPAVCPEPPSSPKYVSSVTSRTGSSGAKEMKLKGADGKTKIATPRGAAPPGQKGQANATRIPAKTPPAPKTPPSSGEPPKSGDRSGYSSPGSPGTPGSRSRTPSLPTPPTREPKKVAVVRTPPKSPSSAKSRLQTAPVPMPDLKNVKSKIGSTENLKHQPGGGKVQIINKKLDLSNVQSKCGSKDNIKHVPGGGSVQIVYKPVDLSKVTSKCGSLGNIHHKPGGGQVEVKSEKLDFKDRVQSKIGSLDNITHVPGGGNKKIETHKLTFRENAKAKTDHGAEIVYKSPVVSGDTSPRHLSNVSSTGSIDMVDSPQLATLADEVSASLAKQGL
# Excerpt: as §1, §2, §4
# [4] = in vivo PK study of compound 13 decaying into F0502B; settings: after injection of compound 13, 15 min to 90 min
# [5] = target: α-Syn PFFs (Homo sapiens, UniProt P37840); assay: fluorescence spectroscopy titration with α-Syn PFFs; assay type: binding; settings: for binding to α-Syn PFFs by fluorescent emission intensity: 0.08 μM fibrils, 5 μM small molecule, result in words
# Protocol: (§5) A fluorescent titration assay was conducted. The fluorescent emission intensities were determined with 0.08 μM of various fibrils in the presence of 5 μM of the small molecules.
# (§6) To further investigate the selected compounds binding activities with α-Syn PFFs, fluorescence spectroscopy titrations were conducted to quantitatively measure compounds emission intensity when interacting with different concentrations of α-Syn PFFs. The UV spectrum of each compound was determined and selected for the optimal wavelength to conduct the fluorescence spectroscopic studies.
# [6] = target: T1, Aβ PFFs; assay: fluorescence spectroscopy titration with Aβ PFFs; assay type: binding; settings: fluorescence spectroscopy titration; read-out: binding constant Kd for Aβ PFFs
# Protocol: as §5, §6
# [7] = target: T2, Tau PFFs; assay: fluorescence spectroscopy titration with Tau PFFs; assay type: binding; settings: fluorescence spectroscopy titration; read-out: binding constant Kd for Tau PFFs
# Protocol: as §5, §6
# [8] = system: α-Syn aggregated neurons; assay: neuronal α-Syn aggregation model, fluorescent microscopy; assay type: cell-based; settings: primary cultured neurons, AAV-α-Syn plus α-Syn PFFs
# Excerpt: as §3
# (§7) Primary cultured neurons were infected with AAV-α-Syn, AAV-Tau FL or AAV-APP fragment virus for 7 days, and then treated with α-Syn, Tau or Aβ PFFs by following the described protocols (Volpicelli-Daley et al., 2014). In a few days, the positive compounds were added in the primary neurons with indicated aggregation.
# [9] = system: neurons with Aβ or Tau aggregates; assay: neuronal Aβ and Tau aggregation models, fluorescent microscopy; assay type: cell-based; settings: primary cultured neurons
# Excerpt: as §3, §7
# [10] = target: T3, Lewy bodies in α-Syn A53T virus injected WT mice brain slices (Homo sapiens, UniProt P37840, A53T); assay: staining of mouse brain slices with Lewy bodies; assay type: binding
# T3 construct: from tissue; host or cells: brain (substantia nigra) of wild-type mice injected with α-Syn A53T virus
# Protocol: (§8) To further explore whether the positive compounds selectively bind to the Lewy bodies, α-Syn A53T patient-derived mutant virus injected WT mice brain slices were employed. These mice display extensive Lewy bodies in the SN.
# (§9) To further explore whether the positive compounds selectively bind to the Lewy bodies, a α-Syn A53T patient-derived mutant virus was injected into WT mice brain slices. These mice display extensive Lewy bodies in the Substantial nigra (SN). Moreover, P301S mice expressed neurofibrillary tangles (NFT). The Lewy bodies were labeled with p-α-Syn S129 antibody and the positive aggregates were also labeled with the fluorescent signals from the small molecules. […] However, it was worth noting that almost none of the tested compounds were reactive with NFT.
# [11] = target: T4, senile plaques in 5×FAD and 3×Tg mice brain sections (Homo sapiens, UniProt P05067); assay: staining of mouse brain sections with senile plaques; assay type: binding
# T4 construct: Aβ-enriched senile plaques; from tissue; host or cells: brain sections of 5×FAD and 3×Tg mice
# T4 sequence (P05067 672-713 limits assumed): as the sequence (P05067 672-713 limits assumed) above
# [12] = system: NFT in Tau P301S and 3×Tg mice brain sections; assay: staining of mouse brain sections with NFT; assay type: binding
# Protocol: as §8, §9
# [13] = target: T5, LBs and LNs in DLB and MSA patient brains (Homo sapiens, UniProt P37840); assay: ex vivo screening on DLB and MSA patient brain sections; assay type: binding
# T5 construct: from tissue; host or cells: brain sections of DLB and MSA patients
# Excerpt: (§10) Ex vivo screening was extended into human DLB, MSA and AD patient samples. […] Since there are detectable α-Syn aggregates in AD patient brains, these compounds colocalized with p-S129 positive α-Syn inclusions.
# (§11) The ex vivo screening was extended into human DLB, MSA and AD patient samples. Neurodegenerative disease of DLB (dementia with Lewy Bodies) and MSA belongs to synucleinopathies with well-defined Lewy bodies.
# [14] = system: senile plaques or NFT in AD; assay: ex vivo screening on AD patient brain sections; assay type: binding, human
# Excerpt: as §10, §11
# [15] = plasma-brain ratio study / in vivo PK of EU compounds; parameters: species or system mouse; settings: for B/P: single animals; for brain permeability: i.v.
# Protocol: To address whether the selected compounds penetrate the brain, a plasma-brain ratio study was performed with EU04-03A, EU05-02A and EU05-02B.
# To test whether these compounds are brain permeable in vivo, in vivo PK profiling was conducted to determine brain exposure.
compound,measurement,setting,value
"Cc1cc2nc(/C=C/c3ccc(OC(=O)N(C)C)c(Br)c3)sc2cc1N(C)CCOCCF [compound 13, (E)-2-bromo-4-(2-(6-((2-(2-fluoroethoxy)ethyl)(methyl)amino)-5-methylbenzo[d]thiazol-2-yl)vinyl)phenyl dimethylcarbamate]",binding activity toward α-Syn PFFs,[1],"did not specifically interact with α-Syn, Aβ or Tau aggregates"
same,binding toward Aβ PFFs,[2],"did not specifically interact with α-Syn, Aβ or Tau aggregates"
same,binding toward Tau PFFs,[3],"did not specifically interact with α-Syn, Aβ or Tau aggregates"
same,plasma concentration course,[4],decreased in the plasma
"COc1ccc(/C=C/c2nc3cc(C)c(N(C)CCOCCF)cc3s2)cc1Br [compound 8, (E)-2-(3-bromo-4-methoxystyryl)-N-(2-(2-fluoroethoxy)ethyl)-N,5-dimethylbenzo[d]thiazol-6-amine]",binding activity toward α-Syn PFFs,[1],somehow interacted with both α-Syn and Aβ
same,binding toward Aβ PFFs,[2],somehow interacted with both α-Syn and Aβ
same,binding toward Tau PFFs,[3],not Tau fibrils
"Cc1cc2nc(/C=C/c3ccc(O)c(Br)c3)sc2cc1N(C)C [EU-005-02B, (E)-2-bromo-4-(2-(6-(dimethylamino)-5-methylbenzo[d]thiazol-2-yl)vinyl)phenol]",binding to α-Syn PFFs by fluorescent emission intensity,[5],stronger binding affinity toward α-Syn PFFs versus Tau and Aβ PFFs; also recorded: dose-dependent escalation of the emission intensities
same,binding to α-Syn PFFs by fluorescent emission intensity,[5]; listed as EU05-02B,partial binding selectivity toward α-Syn PFFs versus Aβ and Tau fibrils
same,binding to α-Syn PFFs by fluorescent emission intensity,[5]; listed as EU-05-02B,showed specific association with the PFFs
same,Kd,"[5]; fluorescence spectroscopy titration, read-out: binding constant Kd for α-Syn PFFs",170 nM
same,Kd,[6],850 nM
same,Kd,[7],3700 nM
same,fluorescent signal in α-Syn aggregated neurons,[8],positive for selective binding
same,fluorescent signal in α-Syn aggregated neurons,[8]; listed as EU05-02B,positive signals in α-Syn aggregated neurons
same,fluorescent signal in neurons with Aβ or Tau aggregates,[9],negligible effects in neurons with Aβ or Tau aggregates
same,staining of Lewy bodies (p-α-Syn S129 positive),[10],concrete aggregates were also stained with the fluorescent signals from EU05-02B
same,staining of senile plaques,[11],barely recognized senile plaques or NFT
same,staining of NFT,[12],barely recognized senile plaques or NFT
same,staining of LBs and LNs,[13],robust signals with LBs and LNs
same,staining of LBs and LNs,[13]; listed as EU05-02B,robust signals with LBs and LNs in DLB and MSA patient brains
same,"staining of senile plaques or NFT (Aβ, AT8 positive aggregates)",[14],barely co-stained with anti-AD or AT8 positive aggregate signals
same,"staining of senile plaques or NFT (Aβ, AT8 positive aggregates)",[14]; listed as EU05-02B,did not stain senile plaques or NFT in AD
same,B/P,"[15]; Male ICH Mouse, 5 mg/kg IV, 0.50 h, 5 mg/kg",2.00 and 2.47 and 1.16
same,B/P,"[15]; Male ICH Mouse, 5 mg/kg IV, 1.00 h, 5 mg/kg",2.72 and 6.12 and 4.48
same,B/P,"[15]; Male ICH Mouse, 5 mg/kg IV, 2.00 h, 5 mg/kg",5.13 and 13.88 and 25.06
same,B/P,"[15]; Male ICH Mouse, 5 mg/kg IV, 4.00 h, 5 mg/kg",29.74 and 5.63 and 21.06
same,B/P,"[15]; Male ICH Mouse, 5 mg/kg IV, 8.00 h, 5 mg/kg",57.33 and 78.00 and 36.00
same,Kp at 0.5 h,"[15]; male, ICH, mouse, brain, iv, 5 mg/kg, Male ICH Mouse, 5 mg/kg IV, 0.50 h, read-out: B/P Mean",1.88
same,Kp at 1 h,"[15]; male, ICH, mouse, brain, iv, 5 mg/kg, Male ICH Mouse, 5 mg/kg IV, 1.00 h, read-out: B/P Mean",4.44
same,Kp at 2 h,"[15]; male, ICH, mouse, brain, iv, 5 mg/kg, Male ICH Mouse, 5 mg/kg IV, 2.00 h, read-out: B/P Mean",14.7
same,Kp at 4 h,"[15]; male, ICH, mouse, brain, iv, 5 mg/kg, Male ICH Mouse, 5 mg/kg IV, 4.00 h, read-out: B/P Mean",18.8
same,Kp at 8 h,"[15]; male, ICH, mouse, brain, iv, 5 mg/kg, Male ICH Mouse, 5 mg/kg IV, 8.00 h, read-out: B/P Mean",57.1
same,in vivo half-life / decay,"[15]; mice, i.v. 5 mg/kg, result in words",long in vivo half-life
same,brain permeability,"[15]; mice, result in words",time-dependent escalation of B/P ratios; also recorded: brain permeability is much higher as compared to EU-005-02A
same,brain permeability,"[15]; mice, result in words, listed as EU05-02B",swiftly penetrated the brain and exhibited much higher brain permeability compared to EU05-02A
